{"source": "patent US20170100489A1", "about": "“POLYETHYLENE GLYCOL-MODIFIED INTEGRIN BLOCKER HM-3 AND USE THEREOF” (HANMEI XU, priority 2012, published 2017)", "key": {"[1]": {"biological_target": "T1, integrin α5β1 (Homo sapiens, UniProt P05556+P08648)", "T1 construct": "Bel-7402 tumor cells and MCF-7 fusion cultured to 80%; endogenous in cells; host or cells: Bel-7402 and MCF-7 tumor cells", "T1 sequence (P08648 42-894 limits assumed)": "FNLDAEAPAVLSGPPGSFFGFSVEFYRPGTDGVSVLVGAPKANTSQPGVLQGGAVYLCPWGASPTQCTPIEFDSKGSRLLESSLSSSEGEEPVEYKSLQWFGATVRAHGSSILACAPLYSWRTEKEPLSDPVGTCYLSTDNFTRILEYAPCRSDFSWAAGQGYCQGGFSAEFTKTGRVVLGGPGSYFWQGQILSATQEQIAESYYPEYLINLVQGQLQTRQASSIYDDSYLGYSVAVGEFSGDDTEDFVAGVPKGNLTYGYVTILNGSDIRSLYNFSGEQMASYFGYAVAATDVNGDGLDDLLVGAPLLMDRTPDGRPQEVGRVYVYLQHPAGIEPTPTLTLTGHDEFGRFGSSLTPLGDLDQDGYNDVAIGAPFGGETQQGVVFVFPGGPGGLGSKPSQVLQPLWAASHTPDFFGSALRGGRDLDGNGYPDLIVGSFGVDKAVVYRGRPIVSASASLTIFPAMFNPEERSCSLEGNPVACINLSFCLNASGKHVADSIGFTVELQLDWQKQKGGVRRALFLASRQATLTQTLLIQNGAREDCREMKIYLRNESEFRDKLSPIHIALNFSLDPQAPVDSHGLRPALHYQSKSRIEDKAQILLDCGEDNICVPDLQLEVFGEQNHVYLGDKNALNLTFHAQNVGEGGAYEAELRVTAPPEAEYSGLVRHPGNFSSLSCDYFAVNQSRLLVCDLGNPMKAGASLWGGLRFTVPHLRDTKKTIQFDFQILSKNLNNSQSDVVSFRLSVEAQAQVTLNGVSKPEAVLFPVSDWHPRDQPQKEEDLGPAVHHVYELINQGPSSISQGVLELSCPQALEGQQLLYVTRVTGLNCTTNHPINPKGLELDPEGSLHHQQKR", "T1 sequence (P08648 895-1049 partner limits assumed)": "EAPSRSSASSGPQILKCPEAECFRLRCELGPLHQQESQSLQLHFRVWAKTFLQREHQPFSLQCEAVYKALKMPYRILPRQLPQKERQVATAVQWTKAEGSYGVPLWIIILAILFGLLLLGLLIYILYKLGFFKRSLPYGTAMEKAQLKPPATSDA", "T1 sequence (P05556 21-798)": "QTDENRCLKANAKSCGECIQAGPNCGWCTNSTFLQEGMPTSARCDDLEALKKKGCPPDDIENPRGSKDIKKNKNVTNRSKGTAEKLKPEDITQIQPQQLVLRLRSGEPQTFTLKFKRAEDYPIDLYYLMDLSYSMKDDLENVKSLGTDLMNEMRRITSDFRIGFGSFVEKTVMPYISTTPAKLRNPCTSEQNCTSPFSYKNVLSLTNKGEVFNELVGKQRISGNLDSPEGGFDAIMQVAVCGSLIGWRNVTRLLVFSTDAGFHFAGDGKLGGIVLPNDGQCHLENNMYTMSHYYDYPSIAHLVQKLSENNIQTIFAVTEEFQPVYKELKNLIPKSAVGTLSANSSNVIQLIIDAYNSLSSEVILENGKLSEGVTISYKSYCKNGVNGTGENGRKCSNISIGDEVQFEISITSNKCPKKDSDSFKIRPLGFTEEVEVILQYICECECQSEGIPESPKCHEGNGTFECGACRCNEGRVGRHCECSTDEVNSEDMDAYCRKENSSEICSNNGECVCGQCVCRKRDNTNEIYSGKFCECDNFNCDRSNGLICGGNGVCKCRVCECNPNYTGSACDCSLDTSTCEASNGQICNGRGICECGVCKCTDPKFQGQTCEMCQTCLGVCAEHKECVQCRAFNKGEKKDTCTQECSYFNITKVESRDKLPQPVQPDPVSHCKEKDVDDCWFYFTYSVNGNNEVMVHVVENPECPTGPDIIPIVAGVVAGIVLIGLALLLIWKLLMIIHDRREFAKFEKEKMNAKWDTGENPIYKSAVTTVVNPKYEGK", "experiment": "Combination with targets through flow cytometry (FITC labeled polypeptide, function-blocking antibody)", "assay_type": "binding", "details": "Bel-7402 and MCF-7 cells, 2 mg/ml, FIG. 1", "protocol": "(§1) • (1) Bel-7402 tumor cells and MCF-7 fusion cultured to 80% after the 24-well plate, trypsinized collected, washed with ice-cold PBS twice, the cells were labeled prior containing 1% BSA resuspended in PBS 30 min. • (2) 2 μl mouse anti-human ανβ3 function-blocking monoclonal antibody (1.0 μg/μl, 1:200), mouse anti-human 2 μl α5β1 function-blocking monoclonal antibody (1.0 μg/μl, 1:200) and the cell suspension were incubated at 4° C. 1.5 h. • (3) collected the labeled cells and washed with ice-cold PBS twice, followed by 100 μl FITC labeled polypeptide modified mPEG-SC20k-HM-3 (2 mg/ml) and the cell suspension were incubated at 4° C. incubate 1.5 h • (4) After labeled, the cells were collected and washed with ice-cold PBS 2 times, followed by resuspension with 400 μl PBS and analyzed by flow cytometry, and detected intensity of the FITC fluorescence through channel FL1."}, "[2]": {"biological_target": "T2, integrin ανβ3 (Homo sapiens, UniProt P05106+P06756)", "T2 construct": "Bel-7402 tumor cells and MCF-7 fusion cultured to 80%; endogenous in cells; host or cells: Bel-7402 and MCF-7 tumor cells", "T2 sequence (P06756 31-889 limits assumed)": "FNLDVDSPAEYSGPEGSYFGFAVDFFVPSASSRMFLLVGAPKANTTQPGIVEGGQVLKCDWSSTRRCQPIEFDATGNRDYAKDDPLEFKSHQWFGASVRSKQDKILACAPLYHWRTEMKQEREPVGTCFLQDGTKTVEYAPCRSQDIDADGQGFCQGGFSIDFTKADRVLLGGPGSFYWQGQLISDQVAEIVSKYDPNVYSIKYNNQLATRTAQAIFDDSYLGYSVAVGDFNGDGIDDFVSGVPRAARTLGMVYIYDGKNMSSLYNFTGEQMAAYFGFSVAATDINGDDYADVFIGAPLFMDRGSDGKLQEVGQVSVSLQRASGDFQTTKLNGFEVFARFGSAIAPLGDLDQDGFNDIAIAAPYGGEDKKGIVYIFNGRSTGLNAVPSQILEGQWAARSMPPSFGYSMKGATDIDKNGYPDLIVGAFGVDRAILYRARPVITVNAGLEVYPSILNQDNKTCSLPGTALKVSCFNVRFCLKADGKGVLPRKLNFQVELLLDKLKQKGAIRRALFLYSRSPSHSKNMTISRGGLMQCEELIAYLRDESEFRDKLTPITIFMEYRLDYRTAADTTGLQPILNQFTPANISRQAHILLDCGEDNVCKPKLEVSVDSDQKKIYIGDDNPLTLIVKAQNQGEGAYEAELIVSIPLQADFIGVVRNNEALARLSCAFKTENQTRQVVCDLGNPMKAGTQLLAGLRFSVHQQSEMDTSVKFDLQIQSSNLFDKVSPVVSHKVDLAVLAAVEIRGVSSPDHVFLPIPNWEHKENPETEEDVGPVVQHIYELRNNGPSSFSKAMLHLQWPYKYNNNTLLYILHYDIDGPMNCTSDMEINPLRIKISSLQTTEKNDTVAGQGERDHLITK", "T2 sequence (P06756 891-1048 partner limits assumed)": "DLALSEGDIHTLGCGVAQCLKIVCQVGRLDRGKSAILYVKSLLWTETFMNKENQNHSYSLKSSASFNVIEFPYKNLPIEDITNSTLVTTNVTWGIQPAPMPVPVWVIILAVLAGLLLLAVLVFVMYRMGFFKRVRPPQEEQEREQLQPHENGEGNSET", "T2 sequence (P05106 27-788)": "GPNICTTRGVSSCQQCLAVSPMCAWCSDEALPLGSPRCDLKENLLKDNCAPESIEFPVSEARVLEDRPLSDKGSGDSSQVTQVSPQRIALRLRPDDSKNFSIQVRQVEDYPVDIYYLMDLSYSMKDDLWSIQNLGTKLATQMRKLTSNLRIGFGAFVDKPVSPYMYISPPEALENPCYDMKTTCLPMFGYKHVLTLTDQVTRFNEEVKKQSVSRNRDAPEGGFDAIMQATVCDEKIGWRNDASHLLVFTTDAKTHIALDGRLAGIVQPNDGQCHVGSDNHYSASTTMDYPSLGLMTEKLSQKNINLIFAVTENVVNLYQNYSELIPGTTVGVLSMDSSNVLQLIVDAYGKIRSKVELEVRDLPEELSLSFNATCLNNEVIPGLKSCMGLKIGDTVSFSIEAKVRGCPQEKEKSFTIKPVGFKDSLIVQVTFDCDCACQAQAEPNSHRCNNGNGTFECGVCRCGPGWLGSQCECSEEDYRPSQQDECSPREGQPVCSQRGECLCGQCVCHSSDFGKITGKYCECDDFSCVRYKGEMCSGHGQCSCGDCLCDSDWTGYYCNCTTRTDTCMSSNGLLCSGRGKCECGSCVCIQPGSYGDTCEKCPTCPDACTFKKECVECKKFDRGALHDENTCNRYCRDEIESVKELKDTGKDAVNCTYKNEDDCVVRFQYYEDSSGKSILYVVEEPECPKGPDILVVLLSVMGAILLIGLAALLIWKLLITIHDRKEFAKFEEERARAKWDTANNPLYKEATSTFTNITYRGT", "experiment": "Combination with targets through flow cytometry (FITC labeled polypeptide, function-blocking antibody)", "assay_type": "binding", "details": "Bel-7402 and MCF-7 cells, 2 mg/ml, FIG. 1", "protocol": "as §1"}, "[3]": {"system": "human kidney cancer A498 xenograft tumors", "experiment": "Tumor growth inhibition, A498 xenograft", "details": "for Rate of inhibiting tumors / Tumor weight: Once 3 days", "quoted_text": "Human kidney cancer A498 cell lines in logarithmic growth phase were picked and made into 5×10^7/ml cell suspension of under sterile conditions, and then 0.1 ml suspension was inoculated subcutaneously at the right armpit of nude mice. Tumor diameter was measured with a vernier caliper. The animals which had tumors with a size of 100-200 mm^3 were randomly divided into groups. The effect of polypeptide on anti-tumor was dynamically observed through the method of measuring tumor diameter. The times of measuring tumor diameter were once 2 days, and meantime, weighed mice. The mice in experimental group were infused polypeptide through tail vein. The mice in the placebo group were injected saline with the same volume, once 1 day; Taxol group: 10 mg/kg, once 1 week; Endostar group: 2.5 mg/kg, once 1 day; The groups of high, intermediate and low polypeptide: 6, 3, 1.5 mg/kg, respectively, once 1 day. After administration, all mice were sacrificed. Stripped the tumors and weighed."}, "[4]": {"system": "human endometrial cancer HHUA xenograft tumors", "experiment": "Tumor growth inhibition, HHUA xenograft", "details": "for Rate of inhibiting tumors / Tumor weight: Once 3 days", "quoted_text": "Human endometrial cancer HHUA cell lines in logarithmic growth phase were picked, and made into 5×10^7/ml cell suspension of under sterile conditions, and then 0.1 ml suspension was inoculated subcutaneously at the right armpit of nude mice. Tumor diameter was measured with a vernier caliper. The animals which had tumors with a size of 100-200 mm^3 were randomly divided into groups. The effect of polypeptide on anti-tumor was dynamically observed through the method of measuring tumor diameter. The times of measuring tumor diameter were once 2 days, and meantime, weighed mice. The mice in experimental group were infused polypeptide through tail vein. The mice in the placebo group were injected saline with the same volume, once 1 day; Taxol group: 10 mg/kg, once 1 week; Endostar group: 2.5 mg/kg, once 1 day; The groups of high, intermediate and low polypeptide: 6, 3, 1.5 mg/kg, respectively, once 1 day. After administration, all mice were sacrificed. Stripped the tumors and weighed."}, "[5]": {"system": "human cervical cancer HeLa xenograft tumors", "experiment": "Tumor growth inhibition, HeLa xenograft", "details": "for Rate of inhibiting tumors / Tumor weight: Once 3 days", "quoted_text": "Human cervical cancer HeLa cell lines in logarithmic growth phase were picked, and made into 5×10^7/ml cell suspension of under sterile conditions, and then 0.1 ml suspension was inoculated subcutaneously at the right armpit of nude mice. Tumor diameter was measured with a vernier caliper. The animals which had tumors with a size of 100-200 mm^3 were randomly divided into groups. The effect of polypeptide on anti-tumor was dynamically observed through the method of measuring tumor diameter. The times of measuring tumor diameter were once 2 days, and meantime, weighed mice. The mice in experimental group were infused polypeptide through tail vein. The mice in the placebo group were injected saline with the same volume, once 1 day; Taxol group: 10 mg/kg, once 1 week; Endostar group: 2.5 mg/kg, once 1 day; The groups of high, intermediate and low polypeptide: 6, 3, 1.5 mg/kg, respectively, once 1 day. After administration, all mice were sacrificed. Stripped the tumors and weighed."}, "[6]": {"system": "human gallbladder cancer GBC-SD xenograft tumors", "experiment": "Tumor growth inhibition, GBC-SD xenograft", "details": "for Rate of inhibiting tumors / Tumor weight: Once 3 day", "quoted_text": "Human gallbladder cancer GBC-SD cell lines in logarithmic growth phase were picked and made into 5×10^7/ml cell suspension of under sterile conditions, and then 0.1 ml suspension was inoculated subcutaneously at the right armpit of nude mice. Tumor diameter was measured with a vernier caliper. The animals which had tumors with a size of 100-200 mm^3 were randomly divided into groups. The effect of polypeptide on anti-tumor was dynamically observed through the method of measuring tumor diameter. The times of measuring tumor diameter were once 2 days, and meantime, weighed mice. The mice in experimental group were infused polypeptide through tail vein. The mice in the placebo group were injected saline with the same volume, once 1 day; Taxol group: 10 mg/kg, once 1 week; Endostar group: 2.5 mg/kg, once 1 day; The groups of high, intermediate and low polypeptide: 6, 3, 1.5 mg/kg, respectively, once 1 day. After administration, all mice were sacrificed. Stripped the tumors and weighed."}, "[7]": {"system": "human bladder cancer HT1376 xenograft tumors", "experiment": "Tumor growth inhibition, HT1376 xenograft", "details": "for Rate of inhibiting tumors / Tumor weight: Once 3 days", "quoted_text": "Human bladder cancer HT1376 cell lines in logarithmic growth phase were picked, and made into 5×10^7/ml cell suspension of under sterile conditions, and then 0.1 ml suspension was inoculated subcutaneously at the right armpit of nude mice. Tumor diameter was measured with a vernier caliper. The animals which had tumors with a size of 100-200 mm^3 were randomly divided into groups. The effect of polypeptide on anti-tumor was dynamically observed through the method of measuring tumor diameter. The times of measuring tumor diameter were once 2 days, and meantime, weighed mice. The mice in experimental group were infused polypeptide through tail vein. The mice in the placebo group were injected saline with the same volume, once 1 day; Taxol group: 10 mg/kg, once 1 week; Endostar group: 2.5 mg/kg, once 1 day; The groups of high, intermediate and low polypeptide: 6, 3, 1.5 mg/kg, respectively, once 1 day. After administration, all mice were sacrificed. Stripped the tumors and weighed."}, "[8]": {"details": "high, 36.7 mg/kg, listed as polypeptide"}, "[9]": {"details": "intermediate, 18.75 mg/kg, listed as polypeptide"}, "[10]": {"details": "low, 9.38 mg/kg, listed as polypeptide"}}, "note": "Marks after values point to notes of the source that are not given here. Where no end group is shown, it is not given here. mPEG‑SC20k = methoxy polyethylene glycol-succinimidyl-carbonate, 20000 Da"}
{"substance": "mPEG-SC20k-Ile-Val-Arg-Arg-Ala-Asp-Arg-Ala-Ala-Val-Pro-Gly-Gly-Gly-Gly-Arg-Gly-Asp ({mPEG‑SC20k}-IVRRADRAAVPGGGGRGD) [mPEG-SC20k-HM-3]", "values": [{"measurement": "binding to integrin α5β1", "setting": "[1]", "result": "able to bind"}, {"measurement": "binding to integrin ανβ3", "setting": "[2]", "result": "able to bind"}, {"measurement": "inhibition of tumor growth compared with negative control", "setting": "[3]; 36.7 mg/kg, P<0.05", "result": "significant inhibition role"}, {"measurement": "Rate of inhibiting tumors", "setting": "[3]; high, 36.7 mg/kg", "result": 55.11, "unit": "%*"}, {"measurement": "Tumor weight", "setting": "[3]; high, 36.7 mg/kg", "result": 0.424, "unit": "g"}, {"measurement": "Rate of inhibiting tumors", "setting": "[3]; [8]", "result": 55.11, "unit": "%"}, {"measurement": "Rate of inhibiting tumors", "setting": "[3]; intermediate, 18.75 mg/kg", "result": 46.95, "unit": "%"}, {"measurement": "Tumor weight", "setting": "[3]; intermediate, 18.75 mg/kg", "result": 0.501, "unit": "g"}, {"measurement": "Rate of inhibiting tumors", "setting": "[3]; [9]", "result": 46.95, "unit": "%"}, {"measurement": "Rate of inhibiting tumors", "setting": "[3]; low, 9.38 mg/kg", "result": 39.00, "unit": "%"}, {"measurement": "Tumor weight", "setting": "[3]; low, 9.38 mg/kg", "result": 0.576, "unit": "g"}, {"measurement": "Rate of inhibiting tumors", "setting": "[3]; [10]", "result": 39.00, "unit": "%"}, {"measurement": "inhibition of tumor growth compared with negative control", "setting": "[4]; 36.7 mg/kg, P<0.05", "result": "significant inhibition role"}, {"measurement": "Rate of inhibiting tumors", "setting": "[4]; high, 36.7 mg/kg", "result": 62.47, "unit": "%*"}, {"measurement": "Tumor weight", "setting": "[4]; high, 36.7 mg/kg", "result": 0.453, "unit": "g"}, {"measurement": "Rate of inhibiting tumors", "setting": "[4]; [8]", "result": 62.47, "unit": "%"}, {"measurement": "Rate of inhibiting tumors", "setting": "[4]; intermediate, 18.75 mg/kg", "result": 53.65, "unit": "%"}, {"measurement": "Tumor weight", "setting": "[4]; intermediate, 18.75 mg/kg", "result": 0.560, "unit": "g"}, {"measurement": "Rate of inhibiting tumors", "setting": "[4]; [9]", "result": 53.65, "unit": "%"}, {"measurement": "Rate of inhibiting tumors", "setting": "[4]; low, 9.38 mg/kg", "result": 51.38, "unit": "%"}, {"measurement": "Tumor weight", "setting": "[4]; low, 9.38 mg/kg", "result": 0.587, "unit": "g"}, {"measurement": "Rate of inhibiting tumors", "setting": "[4]; [10]", "result": 51.38, "unit": "%"}, {"measurement": "inhibition of tumor growth compared with negative control", "setting": "[5]; 36.7 mg/kg, P<0.05", "result": "significant inhibition role"}, {"measurement": "Rate of inhibiting tumors", "setting": "[5]; high, 36.7 mg/kg", "result": 82.07, "unit": "%*"}, {"measurement": "Tumor weight", "setting": "[5]; high, 36.7 mg/kg", "result": 0.222, "unit": "g"}, {"measurement": "Rate of inhibiting tumors", "setting": "[5]; [8]", "result": 82.07, "unit": "%"}, {"measurement": "Rate of inhibiting tumors", "setting": "[5]; intermediate, 18.75 mg/kg", "result": 74.11, "unit": "%"}, {"measurement": "Tumor weight", "setting": "[5]; intermediate, 18.75 mg/kg", "result": 0.320, "unit": "g"}, {"measurement": "Rate of inhibiting tumors", "setting": "[5]; [9]", "result": 74.11, "unit": "%"}, {"measurement": "Rate of inhibiting tumors", "setting": "[5]; low, 9.38 mg/kg", "result": 63.32, "unit": "%"}, {"measurement": "Tumor weight", "setting": "[5]; low, 9.38 mg/kg", "result": 0.453, "unit": "g"}, {"measurement": "Rate of inhibiting tumors", "setting": "[5]; [10]", "result": 63.32, "unit": "%"}, {"measurement": "inhibition of tumor growth compared with negative control", "setting": "[6]; 36.7 mg/kg, P<0.05", "result": "significant inhibition role"}, {"measurement": "Rate of inhibiting tumors", "setting": "[6]; high, 36.7 mg/kg", "result": 61.45, "unit": "%*"}, {"measurement": "Tumor weight", "setting": "[6]; high, 36.7 mg/kg", "result": 0.409, "unit": "g"}, {"measurement": "Rate of inhibiting tumors", "setting": "[6]; [8]", "result": 61.45, "unit": "%"}, {"measurement": "Rate of inhibiting tumors", "setting": "[6]; intermediate, 18.75 mg/kg", "result": 50.59, "unit": "%"}, {"measurement": "Tumor weight", "setting": "[6]; intermediate, 18.75 mg/kg", "result": 0.524, "unit": "g"}, {"measurement": "Rate of inhibiting tumors", "setting": "[6]; [9]", "result": 50.59, "unit": "%"}, {"measurement": "Rate of inhibiting tumors", "setting": "[6]; low, 9.38 mg/kg", "result": 40.32, "unit": "%"}, {"measurement": "Tumor weight", "setting": "[6]; low, 9.38 mg/kg", "result": 0.633, "unit": "g"}, {"measurement": "Rate of inhibiting tumors", "setting": "[6]; [10]", "result": 40.32, "unit": "%"}, {"measurement": "inhibition of tumor growth compared with negative control", "setting": "[7]; 36.7 mg/kg, P<0.05", "result": "significant inhibition role"}, {"measurement": "Rate of inhibiting tumors", "setting": "[7]; high, 36.7 mg/kg", "result": 63.42, "unit": "%*"}, {"measurement": "Tumor weight", "setting": "[7]; high, 36.7 mg/kg", "result": 0.372, "unit": "g"}, {"measurement": "Rate of inhibiting tumors", "setting": "[7]; [8]", "result": 63.42, "unit": "%"}, {"measurement": "Rate of inhibiting tumors", "setting": "[7]; intermediate, 18.75 mg/kg", "result": 54.24, "unit": "%"}, {"measurement": "Tumor weight", "setting": "[7]; intermediate, 18.75 mg/kg", "result": 0.466, "unit": "g"}, {"measurement": "Rate of inhibiting tumors", "setting": "[7]; [9]", "result": 54.24, "unit": "%"}, {"measurement": "Rate of inhibiting tumors", "setting": "[7]; low, 9.38 mg/kg", "result": 46.39, "unit": "%"}, {"measurement": "Tumor weight", "setting": "[7]; low, 9.38 mg/kg", "result": 0.546, "unit": "g"}, {"measurement": "Rate of inhibiting tumors", "setting": "[7]; [10]", "result": 46.39, "unit": "%"}]}
